Data from BindingDB's records for doi:10.7270/Q2CN728N (Nmmlsc, 2008).
Where a name gives a salt, the structure may show the parent alone.

What follows are compounds tested against T1, Bcl-2-related protein A1 (Homo sapiens, UniProt Q16548) (assay: inhibitors of Bim binding to Bfl-1, dose response, biochemical, multiplexed, bead-based flow cytometry (AID 1320)). Details: inactive by the depositor's call; pH 7.4; 4 °C.
T1 sequence (Q16548 whole entry): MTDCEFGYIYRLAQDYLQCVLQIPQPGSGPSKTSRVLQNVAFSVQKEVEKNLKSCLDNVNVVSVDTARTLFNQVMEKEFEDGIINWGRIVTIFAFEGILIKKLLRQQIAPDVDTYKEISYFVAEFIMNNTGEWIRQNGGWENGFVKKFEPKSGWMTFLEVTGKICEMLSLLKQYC

Row | Compound | EC50 [µM]
1 | Cc1ccc(/C=C/C(=O)c2ccccc(=O)c2O)c(C)c1 [3-[3-(2,4-dimethylphenyl)acryloyl]-2-hydroxy-2,4,6-cycloheptatrien-1-one] | 51.1
2 | N#Cc1cccc(/N=c2/ssnc2Cl)c1 [3-[(4-chloro-5-dithiazolylidene)amino]benzonitrile] | 14.5
3 | COc1ccc(N2C(=O)C(Cl)=C(Oc3cccc(OC)c3)C2=O)cc1 [3-chloro-4-(3-methoxyphenoxy)-1-(4-methoxyphenyl)-1H-pyrrole-2,5-dione] | 0.68
4 | CCOc1cc(S(=O)(=O)Nc2ccccn2)ccc1F [3-ethoxy-4-fluoro-N-(2-pyridinyl)benzenesulfonamide] | 44.5

Next, values leading:

Row | EC50 [µM] | Compound
5 | 11.7 | Cc1nc2ncccn2c1-c1csc(Nc2ccccc2)n1 [4-(2-methyl-3-imidazo[1,2-a]pyrimidinyl)-N-phenyl-2-thiazolamine]
6 | 17.5 | CNc1ccc(Br)cc(C(=O)/C=C/c2cccc(OC)c2)c1=O [4-bromo-2-[3-(3-methoxyphenyl)acryloyl]-7-(methylamino)-2,4,6-cycloheptatrien-1-one]

Same assay, conditions: pH 7.4; 4 °C

Row | Compound | EC50 [µM]
7 | CCN(CC)c1ccc(NC2=C(Cl)C(=O)c3ccccc3C2=O)cc1 [2-chloro-3-{[4-(diethylamino)phenyl]amino}naphthoquinone] | 0.18
8 | CC(=O)OCCNc1cc(Sc2nc3ccccc3[nH]2)c2nonc2c1[N+](=O)[O-] [2-{[7-(1H-benzimidazol-2-ylthio)-4-nitro-2,1,3-benzoxadiazol-5-yl]amino}ethyl acetate] | 5.6
9 | O=C(/C=C/c1ccccc1Cl)c1ccccc(=O)c1O [3-[(E)-3-(2-chlorophenyl)prop-2-enoyl]-2-oxidanyl-cyclohepta-2,4,6-trien-1-one] | 9.01
10 | O=C(c1ccccc1)c1[nH]n(-c2ccccc2)c2c(O)n(-c3ccccc3)c(=O)c1-2 [3-benzoyl-1,5-diphenyl-3a,6a-dihydropyrrolo[3,4-c]pyrazole-4,6-dione] | 1.36
11 | COc1ccc(N2C(=O)C(=Nc3c(C)n(C)n(-c4ccccc4)c3=O)C(Cl)C2=O)cc1 (stereo not given) [3-chloranyl-4-[(1,5-dimethyl-3-oxidanylidene-2-phenyl-pyrazol-4-yl)amino]-1-(4-methoxyphenyl)pyrrole-2,5-dione] | 12
12 | Cc1c(N=C2C(=O)N(c3ccccc3)C(=O)C2Cl)c(=O)n(-c2ccccc2)n1C (stereo not given) [3-chloranyl-4-[(1,5-dimethyl-3-oxidanylidene-2-phenyl-pyrazol-4-yl)amino]-1-phenyl-pyrrole-2,5-dione] | 15.4
13 | Cc1cc(N)ccc1N1CCCC1 [3-methyl-4-(1-pyrrolidinyl)aniline;hydrochloride] | 7.93
14 | CNC(CC(=O)c1ccc([N+](=O)[O-])cc1)C(Cl)(Cl)Cl (stereo not given) [4,4,4-Trichloro-3-methylamino-1-(4-nitro-phenyl)-butan-1-one] | 0.47
15 | COc1cc(C2Nc3cccc4cccc(c34)N2)cc(OC)c1O [4-(2,3-dihydro-1H-perimidin-2-yl)-2,6-dimethoxyphenol] | 1.73

Second part, the compound after the results:

Row | EC50 [µM] | Compound
16 | 5.46 | C=CS(=O)(=O)c1sc(Cl)c(N2CCOCC2)c1[N+](=O)[O-] [4-(2-chloranyl-5-ethenylsulfonyl-4-nitro-thiophen-3-yl)morpholine]
17 | 8.21 | Cc1ccc(-c2c3c([nH]c(=S)c2C#N)CCCC3)o1 [4-(5-methylfuran-2-yl)-2-sulfanylidene-5,6,7,8-tetrahydro-1H-quinoline-3-carbonitrile]
18 | 9 | CCN(CC)c1ccc(Nc2nc(N3CCOCC3)c3ccccc3n2)cc1 [4-N,4-N-diethyl-1-N-(4-morpholin-4-ylquinazolin-2-yl)benzene-1,4-diamine]
19 | 2.8 | CCOc1cccc(CNc2ccc(O)cc2)c1OCc1ccc(Cl)cc1 [4-[[2-[(4-chlorophenyl)methoxy]-3-ethoxyphenyl]methylamino]phenol]
20 | 8.38 | CNc1ccc(Br)cc(C(=O)/C=C/c2cccc(OC)c2OC)c1=O [4-bromanyl-2-[(E)-3-(2,3-dimethoxyphenyl)prop-2-enoyl]-7-(methylamino)cyclohepta-2,4,6-trien-1-one]
